Earlier results, collected in Sander's compilation of Henry's law constants (doi:10.1016/s0016-7037(99)00330-0).

Test: Henry solubility constant Hcp at 298.15 K (mol/(m3 Pa))
Conditions: reference: Plyasunov and Shock (2000); cited value

Structure (SMILES) | Henry solubility constant Hcp
C#CCCCCCCC [1-nonyne] | 9.7e-05
CCCCCCCCCCc1ccccc1 [decylbenzene] | 8.6e-05
CCCC(C)CC (centres undefined) [3-methylhexane] | 4.5e-06
C#CC [propyne] | 0.00075
CC(C)CO [2-methyl-1-propanol] | 0.85
CCC(O)(CC)CC [3-ethyl-3-pentanol] | 0.3
CCCCCO [1-pentanol] | 0.89
C1=CCC=C1 [1,3-cyclopentadiene] | 0.00018
CCCCCCCCCC [decane] | 1.1e-06
CC(C)Cc1ccccc1 [(2-methylpropyl)-benzene] | 0.00029
CCCC(C)C [2-methylpentane] | 5.7e-06
c1ccccc1 [benzene] | 0.0018
C#CCCCCC [1-heptyne] | 0.00018
CC(C)(C)c1ccccc1 [(1,1-dimethylethyl)-benzene] | 0.00079
CC(C)CC(C)O (centres undefined) [4-methyl-2-pentanol] | 0.35
CCC(C)(C)O [2-methyl-2-butanol] | 0.71
OC1CCCCCC1 [cycloheptanol] | 4.6
C=CCCCCC [1-heptene] | 2.5e-05
CC=CCCCC [2-heptene] | 2.3e-05
CC1=CCC(C(C)C)C=C1 (stereo not drawn) [α-phellandrene] | 0.00018
CC1CCCCC1 [methylcyclohexane] | 2.4e-05
CCCCCC(C)O (centres undefined) [2-heptanol] | 0.41
CC(C)CCO [3-methyl-1-butanol] | 0.7
CCCO [1-propanol] | 1.5
CCCC(C)(C)C [2,2-dimethylpentane] | 3.1e-06
C=C(C)C1CC=C(C)CC1 (centres undefined) [1-methyl-4-(1-methylethenyl)-cyclohexene] | 0.00047

Structure (SMILES) | Henry solubility constant Hcp
CCCCC(C)O (centres undefined) [2-hexanol] | 0.52
CCO [ethanol] | 1.9
C[C@H]1CC[C@H](C)CC1 [trans-1,4-dimethylcyclohexane] | 1.1e-05
C1CCCCC1 [cyclohexane] | 5.3e-05
C#CCCCC [1-hexyne] | 0.0003
C#CCCCC#C [1,6-heptadiyne] | 0.0046
C#CCCCCCC#C [1,8-nonadiyne] | 0.003
CCCCCCCCC [nonane] | 2.1e-06
c1ccc2c(c1)CCCC2 [1,2,3,4-tetrahydronaphthalene] | 0.0064
CCCCCCCCCCCCCC [tetradecane] | 9.3e-07
C#CC=C [3-buten-1-yne] | 0.00041
C=CC(=C)CCC=C(C)C [7-methyl-3-methylene-1,6-octadiene] | 0.0004
CC(C)(C)C#CC(C)(C)C [2,2,5,5-tetramethyl-3-hexyne] | 3.4e-05
C=CCCCCCC [1-octene] | 1.1e-05
C1CC1 [cyclopropane] | 0.00012
Cc1cccc(C)c1C [1,2,3-trimethylbenzene] | 0.0026
CCCCCC [hexane] | 6.9e-06
Cc1cccc(C)c1 [1,3-dimethylbenzene] | 0.0014
CC(C)C#CC(C)(C)C [2,2,5-trimethyl-3-hexyne] | 5.5e-05
C1=CCCC1 [cyclopentene] | 0.00016
C#CCC [1-butyne] | 0.00062
C=C1CCC2(C(C)C)CC12 (centres undefined) [4-methylene-1-(1-methylethyl)-bicyclo[3.1.0]hexane] | 0.00015
C=CCC(C)C [4-methyl-1-pentene] | 1.5e-05
CC1CCCC(C)(C)C1 (centres undefined) [1,1,3-trimethylcyclohexane] | 9.3e-06
CC(C)C [2-methylpropane] | 9.2e-06
C#C [ethyne] | 0.00041

Structure (SMILES) | Henry solubility constant Hcp
C1=CCCCC1 [cyclohexene] | 0.00022
CC1CCCC1 [methylcyclopentane] | 2.8e-05
Cc1cccc(C(C)C)c1 [1-methyl-3-(1-methylethyl)-benzene] | 0.0014
CC=C(C)C [2-methyl-2-butene] | 6.7e-05
CCCC(O)CC (centres undefined) [3-hexanol] | 0.42
C=CC [propene] | 5.6e-05
CC(C)CC(C)(C)C [2,2,4-trimethylpentane] | 3e-06
CCCC(C)O (centres undefined) [2-pentanol] | 0.65
Cc1ccccc1C [1,2-dimethylbenzene] | 0.002
CCC(C)(C)C [2,2-dimethylbutane] | 5.6e-06
CCCCC(C)CCC (centres undefined) [4-methyloctane] | 9.7e-07
C=CCC [1-butene] | 4.2e-05
C=C [ethene] | 4.8e-05
CC1=CCC(=C(C)C)CC1 [1-methyl-4-(1-methylethylidene)-cyclohexene] | 0.00079
C=C1C2CCC(C2)C1(C)C (centres undefined) [2,2-dimethyl-3-methylene-bicyclo[2.2.1]heptane] | 0.00023
CC(C)c1ccccc1 [(2-propyl)-benzene] | 0.00084
CCC(C)C(C)C (centres undefined) [2,3-dimethylpentane] | 5.7e-06
CCCc1ccccc1 [propylbenzene] | 0.00091
C1CCCCCC1 [cycloheptane] | 0.0001
CCC(CC)CO [2-ethyl-1-butanol] | 0.54
CCCCCCc1ccccc1 [hexylbenzene] | 0.0004
C1=CC=CCC=C1 [1,3,5-cycloheptatriene] | 0.0022
C=CCCCC=C [1,6-heptadiene] | 5.6e-05
CCCCCCO [1-hexanol] | 0.66
CCCCCCCO [1-heptanol] | 0.54
C=Cc1ccccc1 [ethenylbenzene] | 0.0029

Structure (SMILES) | Henry solubility constant Hcp
OC1CCCC1 [cyclopentanol] | 4.2
CC1=CCCCC1 [1-methylcyclohexene] | 0.00014
Cc1cc(C)cc(C)c1 [1,3,5-trimethylbenzene] | 0.0013
CCCCC(C)C [2-methylhexane] | 2.9e-06
CCCC [butane] | 1.2e-05
C=CCCCCCCC [1-nonene] | 1.2e-05
Cc1ccc(C)cc1 [1,4-dimethylbenzene] | 0.0014
CCCCc1ccccc1 [butylbenzene] | 0.00071
C=CCCC [1-pentene] | 2.4e-05
C[C@@H]1CCCC[C@@H]1C [cis-1,2-dimethylcyclohexane] | 2.8e-05
CC#CCCCC [2-heptyne] | 0.00049
CCCCCCC [heptane] | 4.9e-06
CC(C)C(C)C(C)C [2,3,4-trimethylpentane] | 4.3e-06
CC(C)CC(C)C [2,4-dimethylpentane] | 3.3e-06
CCc1ccccc1 [ethylbenzene] | 0.0013
Cc1ccccc1 [methylbenzene] | 0.0016
C=C(C)C [2-methylpropene] | 5.7e-05
CC1=CC=C(C(C)C)CC1 [1-methyl-4-(1-methylethyl)-1,3-cyclohexadiene] | 0.00051
CCCCC(O)CC (centres undefined) [3-heptanol] | 0.31
C1CCCCCCC1 [cyclooctane] | 9.3e-05
C1=CCC=CC1 [1,4-cyclohexadiene] | 0.001
CCC(O)CC [3-pentanol] | 0.55
CCC(C)O (centres undefined) [2-butanol] | 0.99
CCC#CC(C)(C)C [2,2-dimethyl-3-hexyne] | 0.00014
CCCCCCCCCCCC [dodecane] | 1.2e-06
CCC(C)C [2-methylbutane] | 7.7e-06

Structure (SMILES) | Henry solubility constant Hcp
CC(C)C(C)(C)O [2,3-dimethyl-2-butanol] | 0.38
C=CC=C [1,3-butadiene] | 0.00014
CCCCC [pentane] | 8.7e-06
Cc1ccc(C(C)C)cc1 [1-methyl-4-(1-methylethyl)-benzene] | 0.00096
CCC(C)CO (centres undefined) [2-methyl-1-butanol] | 0.71
CC1(C)C2CC3C(C2)C31C [tricyclene] | 4.9e-05
CCCC(O)CCC [4-heptanol] | 0.34
CCCCCCC(C)O (centres undefined) [2-octanol] | 0.35
C=CC(C)C [3-methyl-1-butene] | 1.9e-05
C=CC(=C)C [2-methyl-1,3-butadiene] | 0.00013
CCCCCCCC [octane] | 4e-06
CC(C)CCC(C)(C)C [2,2,5-trimethylhexane] | 2.8e-06
C1=CCCCCC1 [cycloheptene] | 0.0002
CCCCC(CC)CO (centres undefined) [2-ethyl-1-hexanol] | 0.46
C=C(C)CCC [2-methyl-1-pentene] | 3.3e-05
CCC(C)(C)CC [3,3-dimethylpentane] | 5.3e-06
C#CCCCCCC [1-octyne] | 0.00012
C1CCCC1 [cyclopentane] | 5.5e-05
CC(C)(C)C [dimethylpropane] | 6e-06
CCCCCC1CCCC1 [pentylcyclopentane] | 5.3e-06
CC1CCC(C)(C)C1 (centres undefined) [1,1,3-trimethylcyclopentane] | 6.2e-06
CC(C)O [2-propanol] | 1.2
CCCCCc1ccccc1 [pentylbenzene] | 0.00051
CCCCCCCCO [1-octanol] | 0.41
Cc1ccc(C)c(C)c1 [1,2,4-trimethylbenzene] | 0.0016
